Assay results: patent publication US20230085307A1, “PYRIDAZINONE COMPOUND AND HERBICIDE” (NISSAN CHEMICAL CORPORATION, priority 2019, published 2023)

Key:
late watergrass [1] = test: Test Example 2: herbicidal activity, application during weed generation under submerged conditions (Table 17, symbol A); assay type: in vivo, late watergrass (Echinochloa oryzicola); conditions: AAH 320 g/ha; application during weed generation, submerged conditions
How it was run: (§1)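 Steps: fill Wagner pots with alluvial soil; add water to give 4 cm depth; sow the species mixed; grow under glass at 25–30° C.; at 1–2 leaves apply water-diluted emulsion formulation to the water surface at a fixed herbicide amount; score after 3 weeks.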

Italian ryegrass = test: Test Example 5: herbicidal effect by foliage application, plastic box (Table 20, symbol K); assay type: in vivo, Italian ryegrass (Lolium multiflorum); conditions: 320 g/ha, evaluated three weeks after application
How it was run: (§2)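 Plants were sown into sterilized diluvial soil under about 1.5 cm cover and kept in a greenhouse at 25° C. to 30° C. Fourteen days on, foliage received an even spray of the diluted emulsion. Herbicidal or crop effect was judged three weeks afterwards.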

lambsquarters = test: Test Example 5: herbicidal effect by foliage application, plastic box (Table 20, symbol O); assay type: in vivo, lambsquarters (Chenopodium album); conditions: evaluated three weeks after application
How it was run: as §2

southern crabgrass = test: Test Example 5: herbicidal effect by foliage application, plastic box (Table 20, symbol F); assay type: in vivo, southern crabgrass (Digitaria ciliaris); conditions: evaluated three weeks after application
How it was run: as §2

Japanese bulrush [2] = test: Test Example 2: herbicidal activity, application during weed generation under submerged conditions (Table 17, symbol B); assay type: in vivo, Japanese bulrush (Schoenoplectus juncoides); conditions: AAH 320 g/ha; application during weed generation, submerged conditions
How it was run: as §1

green foxtail = test: Test Example 5: herbicidal effect by foliage application, plastic box (Table 20, symbol G); assay type: in vivo, green foxtail (Setaria viridis); conditions: evaluated three weeks after application
How it was run: as §2

oval-leafed pondweed [3] = test: Test Example 1: herbicidal activity, application before weed generation under submerged conditions (Table 16, symbol C); assay type: in vivo, oval-leafed pondweed (Monochoria vaginalis); conditions: for Herbicidal effect, C: oval-leafed pondweed: amount of applied herbicide 320 g/ha
How it was run: (§3)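 Emulsion formulation, water-diluted to set dose, was put onto the flooded surface (4 cm depth, alluvial soil) the same day weeds were sown and 2.5-leaf rice transplanted. After 3 weeks at 25-30 °C under glass, each species was rated 0 (≤5% kill) to 5 (≥90% kill).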

rice flat sedge = test: Test Example 3: herbicidal effect by foliage application, Wagner pot (Table 18, symbol E); assay type: in vivo, rice flat sedge (Cyperus iria); conditions: for herbicidal effect on rice flat sedge (E): 320 g/ha
How it was run: (§4)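 Plants were sown in alluvial soil held under 0.1–0.5 cm standing water and grown 14 days in a greenhouse at 25–30 °C. An emulsifiable formulation, water-diluted to the set dose, was then sprayed onto the foliage, and effects were scored three weeks later using previously defined criteria.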

Chinese sprangletop = test: Test Example 3: herbicidal effect by foliage application, Wagner pot (Table 18, symbol D); assay type: in vivo, chinese sprangletop (Leptochloa chinensis); conditions: for herbicidal effect on Chinese sprangletop (D): 320 g/ha
How it was run: as §4

Japanese bulrush [4] = test: Test Example 1: herbicidal activity, application before weed generation under submerged conditions (Table 16, symbol B); assay type: in vivo, Japanese bulrush (Schoenoplectus juncoides); conditions: for Herbicidal effect, B: Japanese bulrush: amount of applied herbicide 320 g/ha
How it was run: as §3

blackgrass = test: Test Example 5: herbicidal effect by foliage application, plastic box (Table 20, symbol J); assay type: in vivo, blackgrass (Alopecurus myosuroides); conditions: evaluated three weeks after application
How it was run: as §2

wild oat = test: Test Example 5: herbicidal effect by foliage application, plastic box (Table 20, symbol I); assay type: in vivo, wild oat (Avena fatua); conditions: evaluated three weeks after application
How it was run: as §2

late watergrass [5] = test: Test Example 1: herbicidal activity, application before weed generation under submerged conditions (Table 16, symbol A); assay type: in vivo, late watergrass (Echinochloa oryzicola); conditions: for Herbicidal effect, A: late watergrass: amount of applied herbicide 320 g/ha
How it was run: as §3

chickweed = test: Test Example 5: herbicidal effect by foliage application, plastic box (Table 20, symbol P); assay type: in vivo, common chickweed (Stellaria media); conditions: evaluated three weeks after application
How it was run: as §2

barnyard grass [6] = test: Test Example 3: herbicidal effect by foliage application, Wagner pot (Table 18, symbol H); assay type: in vivo, barnyard grass (Echinochloa crus-galli); conditions: for herbicidal effect on barnyard grass (H): 320 g/ha
How it was run: as §4

oval-leafed pondweed [7] = test: Test Example 2: herbicidal activity, application during weed generation under submerged conditions (Table 17, symbol C); assay type: in vivo, oval-leafed pondweed (Monochoria vaginalis); conditions: AAH 320 g/ha; application during weed generation, submerged conditions
How it was run: as §1

velvetleaf = test: Test Example 5: herbicidal effect by foliage application, plastic box (Table 20, symbol M); assay type: in vivo, velvetleaf (Abutilon theophrasti); conditions: evaluated three weeks after application
How it was run: as §2

persian speedwell = test: Test Example 5: herbicidal effect by foliage application, plastic box (Table 20, symbol R); assay type: in vivo, Persian speedwell (Veronica persica); conditions: evaluated three weeks after application
How it was run: as §2

barnyard grass [8] = test: Test Example 5: herbicidal effect by foliage application, plastic box (Table 20, symbol H); assay type: in vivo, barnyard grass (Echinochloa crus-galli); conditions: evaluated three weeks after application
How it was run: as §2

redroot pigweed = test: Test Example 5: herbicidal effect by foliage application, plastic box (Table 20, symbol N); assay type: in vivo, redroot pigweed (Amaranthus retroflexus); conditions: evaluated three weeks after application
How it was run: as §2

windgrass = test: Test Example 5: herbicidal effect by foliage application, plastic box (Table 20, symbol L); assay type: in vivo, windgrass (Apera spica-venti); conditions: evaluated three weeks after application
How it was run: as §2

[9] = amount of applied herbicide 320 g/ha
[10] = 320 g/ha, foliage application after 14-day growth
[11] = amount of applied herbicide 320 g/ha, foliage application after 14-day growth

Cc1nn(C)c(=O)c(-c2c(-c3ccc(C(=O)O)cc3)sc3ccc(Cl)cc23)c1O [2-113]
herbicidal effect rating, A: late watergrass (late watergrass [1]): 2 (Herbicidal rate of 20% or more and less than 40%) | herbicidal effect on K: Italian ryegrass (Italian ryegrass; foliage application): 0 (Herbicidal rate of 5% or less (almost no effect)) | herbicidal effect on O: lambsquarters (lambsquarters; foliage application, 320 g/ha): 0 (Herbicidal rate of 5% or less (almost no effect)) | herbicidal effect on F: southern crabgrass (southern crabgrass; foliage application, 320 g/ha): 0 (Herbicidal rate of 5% or less (almost no effect)) | herbicidal effect rating, B: Japanese bulrush (Japanese bulrush [2]): 0 (Herbicidal rate of 5% or less (almost no effect)) | herbicidal effect on G: green foxtail (green foxtail; foliage application, 320 g/ha): 0 (Herbicidal rate of 5% or less (almost no effect)) | Herbicidal effect on C: oval-leafed pondweed (grade 0-5) (oval-leafed pondweed [3]; 320 g/ha applied herbicide): 0 (Herbicidal rate of 5% or less (almost no effect)) | herbicidal effect on E: rice flat sedge (rice flat sedge; [9]): 0 (Herbicidal rate of 5% or less (almost no effect)) | herbicidal effect on D: Chinese sprangletop (Chinese sprangletop; [9]): 1 (Herbicidal rate of 5% or more and less than 20%) | Herbicidal effect on B: Japanese bulrush (grade 0-5) (Japanese bulrush [4]; 320 g/ha applied herbicide): 0 (Herbicidal rate of 5% or less (almost no effect)) | herbicidal effect on J: blackgrass (blackgrass; foliage application, 320 g/ha): 0 (Herbicidal rate of 5% or less (almost no effect)) | herbicidal effect on I: wild oat (wild oat; foliage application, 320 g/ha): 0 (Herbicidal rate of 5% or less (almost no effect)) | Herbicidal effect on A: late watergrass (grade 0-5) (late watergrass [5]; 320 g/ha applied herbicide): 3 (Herbicidal rate of 40% or more and less than 70%) | herbicidal effect on P: chickweed (chickweed; foliage application, 320 g/ha): 0 (Herbicidal rate of 5% or less (almost no effect)) | herbicidal effect on H: barnyard grass (barnyard grass [6]; [9]): 3 (Herbicidal rate of 40% or more and less than 70%) | herbicidal effect rating, C: oval-leafed pondweed (oval-leafed pondweed [7]): 0 (Herbicidal rate of 5% or less (almost no effect)) | herbicidal effect on M: velvetleaf (velvetleaf; foliage application, 320 g/ha): 0 (Herbicidal rate of 5% or less (almost no effect)) | herbicidal effect on R: persian speedwell (persian speedwell; foliage application, 320 g/ha): 0 (Herbicidal rate of 5% or less (almost no effect)) | herbicidal effect on H: barnyard grass (barnyard grass [8]; foliage application, 320 g/ha): 0 (Herbicidal rate of 5% or less (almost no effect)) | herbicidal effect on N: redroot pigweed (redroot pigweed; foliage application, 320 g/ha): 0 (Herbicidal rate of 5% or less (almost no effect)) | herbicidal effect on L: windgrass (windgrass; foliage application, 320 g/ha): 0 (Herbicidal rate of 5% or less (almost no effect))

Cc1nn(C)c(=O)c(-c2c(-c3ccc(C(F)(F)F)cc3)sc3cc(Cl)ccc23)c1O [3-145]
herbicidal effect rating, A: late watergrass (late watergrass [1]): 3 (Herbicidal rate of 40% or more and less than 70%) | herbicidal effect on K: Italian ryegrass (evaluation grade 0-5) (Italian ryegrass; foliage application after 14-day growth): 0 (Herbicidal rate of 5% or less (almost no effect)) | herbicidal effect on O: lambsquarters (evaluation grade 0-5) (lambsquarters; [10]): 3 (Herbicidal rate of 40% or more and less than 70%) | herbicidal effect on F: southern crabgrass (evaluation grade 0-5) (southern crabgrass; [10]): 0 (Herbicidal rate of 5% or less (almost no effect)) | herbicidal effect rating, B: Japanese bulrush (Japanese bulrush [2]): 2 (Herbicidal rate of 20% or more and less than 40%) | herbicidal effect on G: green foxtail (evaluation grade 0-5) (green foxtail; [10]): 2 (Herbicidal rate of 20% or more and less than 40%) | Herbicidal effect, C: oval-leafed pondweed (oval-leafed pondweed [3]): 0 (Herbicidal rate of 5% or less (almost no effect)) | herbicidal effect on rice flat sedge (E) (rice flat sedge): 4 (Herbicidal rate of 70% or more and less than 90%) | herbicidal effect on Chinese sprangletop (D) (Chinese sprangletop): 5 (Herbicidal rate of 90% or more (almost completely withered)) | Herbicidal effect, B: Japanese bulrush (Japanese bulrush [4]): 2 (Herbicidal rate of 20% or more and less than 40%) | herbicidal effect on J: blackgrass (evaluation grade 0-5) (blackgrass; [10]): 0 (Herbicidal rate of 5% or less (almost no effect)) | herbicidal effect on I: wild oat (evaluation grade 0-5) (wild oat; [10]): 0 (Herbicidal rate of 5% or less (almost no effect)) | Herbicidal effect, A: late watergrass (late watergrass [5]): 3 (Herbicidal rate of 40% or more and less than 70%) | herbicidal effect on P: chickweed (evaluation grade 0-5) (chickweed; [10]): 0 (Herbicidal rate of 5% or less (almost no effect)) | herbicidal effect on barnyard grass (H) (barnyard grass [6]): 3 (Herbicidal rate of 40% or more and less than 70%) | herbicidal effect rating, C: oval-leafed pondweed (oval-leafed pondweed [7]): 0 (Herbicidal rate of 5% or less (almost no effect)) | herbicidal effect on M: velvetleaf (evaluation grade 0-5) (velvetleaf; [10]): 3 (Herbicidal rate of 40% or more and less than 70%) | herbicidal effect on R: persian speedwell (evaluation grade 0-5) (persian speedwell; [10]): 0 (Herbicidal rate of 5% or less (almost no effect)) | herbicidal effect on H: barnyard grass (evaluation grade 0-5) (barnyard grass [8]; [10]): 0 (Herbicidal rate of 5% or less (almost no effect)) | herbicidal effect on N: redroot pigweed (evaluation grade 0-5) (redroot pigweed; [10]): 3 (Herbicidal rate of 40% or more and less than 70%) | herbicidal effect on L: windgrass (evaluation grade 0-5) (windgrass; [10]): 5 (Herbicidal rate of 90% or more (almost completely withered))

CCCC(=O)Oc1c(C)nn(C)c(=O)c1-c1c(-c2ccc(C(F)(F)F)cc2)sc2cc(F)c(F)cc12 [5-008]
herbicidal effect rating, A: late watergrass (late watergrass [1]): 2 (Herbicidal rate of 20% or more and less than 40%) | Herbicidal effect by foliage application, O: lambsquarters (lambsquarters; [11]): 3 (Herbicidal rate of 40% or more and less than 70%) | Herbicidal effect by foliage application, F: southern crabgrass (southern crabgrass; [11]): 0 (Herbicidal rate of 5% or less (almost no effect)) | herbicidal effect rating, B: Japanese bulrush (Japanese bulrush [2]): 0 (Herbicidal rate of 5% or less (almost no effect)) | Herbicidal effect by foliage application, G: green foxtail (green foxtail; [11]): 0 (Herbicidal rate of 5% or less (almost no effect)) | Herbicidal effect, C: oval-leafed pondweed (oval-leafed pondweed [3]): 0 (Herbicidal rate of 5% or less (almost no effect)) | herbicidal effect on rice flat sedge (E) (rice flat sedge): 0 (Herbicidal rate of 5% or less (almost no effect)) | herbicidal effect on Chinese sprangletop (D) (Chinese sprangletop): 0 (Herbicidal rate of 5% or less (almost no effect)) | Herbicidal effect, B: Japanese bulrush (Japanese bulrush [4]): 0 (Herbicidal rate of 5% or less (almost no effect)) | Herbicidal effect by foliage application, J: blackgrass (blackgrass; [11]): 0 (Herbicidal rate of 5% or less (almost no effect)) | Herbicidal effect by foliage application, I: wild oat (wild oat; [11]): 0 (Herbicidal rate of 5% or less (almost no effect)) | Herbicidal effect, A: late watergrass (late watergrass [5]): 3 (Herbicidal rate of 40% or more and less than 70%) | Herbicidal effect by foliage application, P: chickweed (chickweed; [11]): 4 (Herbicidal rate of 70% or more and less than 90%) | herbicidal effect on barnyard grass (H) (barnyard grass [6]): 4 (Herbicidal rate of 70% or more and less than 90%) | herbicidal effect rating, C: oval-leafed pondweed (oval-leafed pondweed [7]): 0 (Herbicidal rate of 5% or less (almost no effect)) | Herbicidal effect by foliage application, M: velvetleaf (velvetleaf; [11]): 0 (Herbicidal rate of 5% or less (almost no effect)) | Herbicidal effect by foliage application, R: persian speedwell (persian speedwell; [11]): 3 (Herbicidal rate of 40% or more and less than 70%) | Herbicidal effect by foliage application, H: barnyard grass (barnyard grass [8]; [11]): 0 (Herbicidal rate of 5% or less (almost no effect)) | Herbicidal effect by foliage application, N: redroot pigweed (redroot pigweed; [11]): 3 (Herbicidal rate of 40% or more and less than 70%) | Herbicidal effect by foliage application, L: windgrass (windgrass; [11]): 1 (Herbicidal rate of 5% or more and less than 20%)
